# Like-named read-outs stand apart in the source and are kept apart here.
# Assays:
# [1] = target: Pim-1(h) (Homo sapiens (Human), UniProt P11309); assay: Kinase inhibition assay (KinaseProfiler, 33P-ATP); assay type: biochemical; conditions: read-out: The percentage of the remaining active protein
# [2] = target: EGFR (Homo sapiens (Human), UniProt P00533); assay: Kinase inhibition assay (KinaseProfiler, 33P-ATP); assay type: biochemical; conditions: for remaining activity at 10 µM: EGFR(h), read-out: The percentage of the remaining active protein
# [3] = target: PI3 Kinase a(h) (Homo sapiens (Human), UniProt P42336); assay: Kinase inhibition assay (KinaseProfiler, 33P-ATP); assay type: biochemical; conditions: read-out: The percentage of the remaining active protein
# [4] = target: Tie2 (Homo sapiens (Human), UniProt Q02763); assay: Kinase inhibition assay (KinaseProfiler, 33P-ATP); assay type: biochemical; conditions: Tie2 (h), read-out: The percentage of the remaining active protein
# [5] = target: ALK(h) (Homo sapiens (Human), UniProt Q9UM73); assay: Kinase inhibition assay (KinaseProfiler, 33P-ATP); assay type: biochemical; conditions: read-out: The percentage of the remaining active protein
# [6] = tested on: MV4-11; assay: Cell proliferation inhibition assay (MTT); assay type: cell-based; conditions: Homo sapiens, read-out: Proliferation inhibitory activity IC50
# Procedure: (§1) The cells were seeded in 96-well plates with 200 μL of cell suspension per well and incubated overnight in a cell culture medium with a cell concentration of 1 2×10^4 cells/mL. The next day, the supernatant was discarded (the suspension cell was centrifuged before it) and the cells were treated with gradient concentrations of the test compound, respectively. […] After 72 hours, add 20 μL of MTT reagent at a concentration of 5 mg/mL per well. After incubation for 2-4 h, the supernatant was discarded and 150 μL of DMSO was added to each well. […] Relative cell proliferation inhibition rate=([MUT]-[MUT])×100%/[MUT]. The experiment was repeated at least 3 times. Experimental data were expressed as mean, data statistics using t test, P<0.05 for the difference was statistically significant.
# [7] = target: EphB4 (Homo sapiens (Human), UniProt P54760); assay: Kinase inhibition assay (KinaseProfiler, 33P-ATP); assay type: biochemical
# [8] = target: GSK3β(h) (Homo sapiens (Human), UniProt P49841); assay: Kinase inhibition assay (KinaseProfiler, 33P-ATP); assay type: biochemical; conditions: read-out: The percentage of the remaining active protein
# [9] = target: FGFR1 (Homo sapiens (Human), UniProt P11362); assay: Kinase inhibition assay (KinaseProfiler, 33P-ATP); assay type: biochemical
# [10] = tested on: A375; assay: Cell proliferation inhibition assay (MTT); assay type: cell-based; conditions: Homo sapiens, read-out: Proliferation inhibitory activity IC50
# Procedure: as §1
# [11] = target: RIPK2(h) (Homo sapiens (Human), UniProt O43353); assay: Kinase inhibition assay (KinaseProfiler, 33P-ATP); assay type: biochemical; conditions: read-out: The percentage of the remaining active protein
# [12] = target: IKKα (Homo sapiens (Human), UniProt O15111); assay: Kinase inhibition assay (KinaseProfiler, 33P-ATP); assay type: biochemical; conditions: for remaining activity at 10 µM: IKKα(h), read-out: The percentage of the remaining active protein
# [13] = target: PKA(h) (Homo sapiens (Human), UniProt P17612); assay: Kinase inhibition assay (KinaseProfiler, 33P-ATP); assay type: biochemical; conditions: read-out: The percentage of the remaining active protein
# [14] = target: EphA2 (Homo sapiens (Human), UniProt P29317); assay: Kinase inhibition assay (KinaseProfiler, 33P-ATP)
# [15] = target: PKCα(h) (Homo sapiens (Human), UniProt P17252); assay: Kinase inhibition assay (KinaseProfiler, 33P-ATP); assay type: biochemical; conditions: read-out: The percentage of the remaining active protein
# [16] = tested on: Miapaca-2; assay: Cell proliferation inhibition assay (MTT); assay type: cell-based; conditions: Homo sapiens, read-out: Proliferation inhibitory activity IC50
# Procedure: as §1
# [17] = target: JAK2 (Homo sapiens (Human), UniProt O60674); assay: Kinase inhibition assay (KinaseProfiler, 33P-ATP); assay type: biochemical
# [18] = target: PAK1(h) (Homo sapiens (Human), UniProt Q13153); assay: Kinase inhibition assay (KinaseProfiler, 33P-ATP); assay type: biochemical; conditions: read-out: The percentage of the remaining active protein
# [19] = target: ARK5(h) (Homo sapiens (Human), UniProt O60285); assay: Kinase inhibition assay (KinaseProfiler, 33P-ATP); assay type: biochemical; conditions: read-out: The percentage of the remaining active protein
# [20] = target: Tec(h) activated (Homo sapiens (Human), UniProt P42680); assay: Kinase inhibition assay (KinaseProfiler, 33P-ATP); assay type: biochemical; conditions: read-out: The percentage of the remaining active protein
# [21] = target: mTOR(h) (Homo sapiens (Human), UniProt P42345); assay: Kinase inhibition assay (KinaseProfiler, 33P-ATP); assay type: biochemical; conditions: read-out: The percentage of the remaining active protein
# [22] = target: Itk(h) (Homo sapiens (Human), UniProt Q08881); assay: Kinase inhibition assay (KinaseProfiler, 33P-ATP); assay type: biochemical; conditions: read-out: The percentage of the remaining active protein
# [23] = tested on: CFPAC; assay: Cell proliferation inhibition assay (MTT); assay type: cell-based; conditions: Homo sapiens, 72 h, read-out: Proliferation inhibitory activity IC50
# Procedure: as §1
# [24] = target: c-Src(T341M) (Homo sapiens (Human), UniProt P12931, T341M); assay: Kinase inhibition assay (KinaseProfiler, 33P-ATP); assay type: biochemical
# [25] = target: DDR1 (Homo sapiens (Human), UniProt Q08345); assay: Kinase inhibition assay (KinaseProfiler, 33P-ATP); assay type: biochemical; conditions: for IC50: DDR1, ATP at Km
# [26] = target: Fyn (Homo sapiens (Human), UniProt P06241); assay: Kinase inhibition assay (KinaseProfiler, 33P-ATP); assay type: biochemical; conditions: for remaining activity at 10 µM: Fyn(h), read-out: The percentage of the remaining active protein; for IC50: Fyn, ATP at Km
# [27] = tested on: RAMOS; assay: Cell proliferation inhibition assay (MTT); assay type: cell-based; conditions: Homo sapiens, read-out: Proliferation inhibitory activity IC50
# Procedure: as §1
# [28] = target: Fms(h) (Homo sapiens (Human), UniProt P07333); assay: Kinase inhibition assay (KinaseProfiler, 33P-ATP); assay type: biochemical; conditions: read-out: The percentage of the remaining active protein
# [29] = target: KDR (Homo sapiens (Human), UniProt P35968); assay: Kinase inhibition assay (KinaseProfiler, 33P-ATP); assay type: biochemical; conditions: for remaining activity at 10 µM: KDR(h), read-out: The percentage of the remaining active protein
# [30] = target: EphA8(h) (Homo sapiens (Human), UniProt P29322); assay: Kinase inhibition assay (KinaseProfiler, 33P-ATP); assay type: biochemical; conditions: read-out: The percentage of the remaining active protein
# [31] = target: Blk (Homo sapiens (Human), UniProt P51451); assay: Kinase inhibition assay (KinaseProfiler, 33P-ATP); assay type: biochemical
# [32] = target: JAK3(h) (Homo sapiens (Human), UniProt P52333); assay: Kinase inhibition assay (KinaseProfiler, 33P-ATP); assay type: biochemical; conditions: 10 μM, read-out: The percentage of the remaining active protein
# [33] = target: EphA1(h) (Homo sapiens (Human), UniProt P21709); assay: Kinase inhibition assay (KinaseProfiler, 33P-ATP); assay type: biochemical; conditions: 10 μM, read-out: The percentage of the remaining active protein
# Fyn, sequence (P06241 whole entry): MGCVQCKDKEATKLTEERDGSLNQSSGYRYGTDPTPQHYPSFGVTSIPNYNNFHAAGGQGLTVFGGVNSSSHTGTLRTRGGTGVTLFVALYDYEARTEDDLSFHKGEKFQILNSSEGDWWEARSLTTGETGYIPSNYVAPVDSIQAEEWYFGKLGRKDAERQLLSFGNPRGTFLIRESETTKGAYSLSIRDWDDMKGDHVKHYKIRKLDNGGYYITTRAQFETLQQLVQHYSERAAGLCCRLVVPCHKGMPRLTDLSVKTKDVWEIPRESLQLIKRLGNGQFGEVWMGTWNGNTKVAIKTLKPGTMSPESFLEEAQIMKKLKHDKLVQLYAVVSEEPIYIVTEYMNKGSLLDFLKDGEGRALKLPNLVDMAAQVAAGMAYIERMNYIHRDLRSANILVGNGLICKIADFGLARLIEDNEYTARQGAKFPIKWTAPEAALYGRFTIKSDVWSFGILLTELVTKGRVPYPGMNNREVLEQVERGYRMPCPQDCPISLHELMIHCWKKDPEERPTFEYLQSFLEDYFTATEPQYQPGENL
# DDR1, sequence (Q08345 19-913): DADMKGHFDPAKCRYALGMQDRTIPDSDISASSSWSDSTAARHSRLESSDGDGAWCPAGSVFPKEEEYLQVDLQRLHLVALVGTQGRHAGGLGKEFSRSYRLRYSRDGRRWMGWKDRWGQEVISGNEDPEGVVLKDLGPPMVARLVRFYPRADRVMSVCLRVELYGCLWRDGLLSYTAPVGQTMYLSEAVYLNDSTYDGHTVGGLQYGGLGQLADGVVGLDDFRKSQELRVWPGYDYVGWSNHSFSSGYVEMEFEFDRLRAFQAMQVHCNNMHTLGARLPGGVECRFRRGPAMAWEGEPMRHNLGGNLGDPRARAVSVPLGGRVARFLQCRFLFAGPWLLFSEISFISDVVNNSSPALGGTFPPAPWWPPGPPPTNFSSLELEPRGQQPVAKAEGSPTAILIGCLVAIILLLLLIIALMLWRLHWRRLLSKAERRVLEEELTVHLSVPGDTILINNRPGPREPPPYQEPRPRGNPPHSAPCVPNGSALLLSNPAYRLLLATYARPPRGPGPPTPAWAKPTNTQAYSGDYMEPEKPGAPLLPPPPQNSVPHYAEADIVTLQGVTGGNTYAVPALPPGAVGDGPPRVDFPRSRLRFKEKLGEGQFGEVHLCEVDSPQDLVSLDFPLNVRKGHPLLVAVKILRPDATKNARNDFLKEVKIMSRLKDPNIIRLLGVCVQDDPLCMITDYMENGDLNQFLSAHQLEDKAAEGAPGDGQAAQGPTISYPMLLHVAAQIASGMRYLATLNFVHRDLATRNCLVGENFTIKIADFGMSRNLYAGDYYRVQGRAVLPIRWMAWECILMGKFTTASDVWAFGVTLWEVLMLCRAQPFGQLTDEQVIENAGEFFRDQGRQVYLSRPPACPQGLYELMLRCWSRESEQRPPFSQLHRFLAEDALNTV
# IKKα, sequence (O15111 whole entry): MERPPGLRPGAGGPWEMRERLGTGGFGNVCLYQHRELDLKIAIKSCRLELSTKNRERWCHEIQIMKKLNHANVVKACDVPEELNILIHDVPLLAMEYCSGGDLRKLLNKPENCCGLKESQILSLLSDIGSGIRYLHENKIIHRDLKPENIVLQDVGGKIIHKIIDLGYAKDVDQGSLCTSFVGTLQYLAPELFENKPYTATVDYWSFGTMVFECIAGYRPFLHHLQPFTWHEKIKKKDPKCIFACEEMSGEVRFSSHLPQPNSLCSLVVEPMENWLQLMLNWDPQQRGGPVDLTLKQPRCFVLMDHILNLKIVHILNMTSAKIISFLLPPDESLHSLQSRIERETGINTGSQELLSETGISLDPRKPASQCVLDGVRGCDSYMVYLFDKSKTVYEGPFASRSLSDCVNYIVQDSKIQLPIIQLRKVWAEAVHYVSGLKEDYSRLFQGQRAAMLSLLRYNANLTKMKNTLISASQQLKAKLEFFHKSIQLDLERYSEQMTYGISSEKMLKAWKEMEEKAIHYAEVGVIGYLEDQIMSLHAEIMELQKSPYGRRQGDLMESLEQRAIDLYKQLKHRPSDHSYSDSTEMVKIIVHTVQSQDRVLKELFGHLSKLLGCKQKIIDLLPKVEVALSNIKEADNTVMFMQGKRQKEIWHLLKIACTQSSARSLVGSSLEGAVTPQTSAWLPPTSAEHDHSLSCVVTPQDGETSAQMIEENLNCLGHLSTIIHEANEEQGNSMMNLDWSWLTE
# EGFR, sequence (P00533 25-1210): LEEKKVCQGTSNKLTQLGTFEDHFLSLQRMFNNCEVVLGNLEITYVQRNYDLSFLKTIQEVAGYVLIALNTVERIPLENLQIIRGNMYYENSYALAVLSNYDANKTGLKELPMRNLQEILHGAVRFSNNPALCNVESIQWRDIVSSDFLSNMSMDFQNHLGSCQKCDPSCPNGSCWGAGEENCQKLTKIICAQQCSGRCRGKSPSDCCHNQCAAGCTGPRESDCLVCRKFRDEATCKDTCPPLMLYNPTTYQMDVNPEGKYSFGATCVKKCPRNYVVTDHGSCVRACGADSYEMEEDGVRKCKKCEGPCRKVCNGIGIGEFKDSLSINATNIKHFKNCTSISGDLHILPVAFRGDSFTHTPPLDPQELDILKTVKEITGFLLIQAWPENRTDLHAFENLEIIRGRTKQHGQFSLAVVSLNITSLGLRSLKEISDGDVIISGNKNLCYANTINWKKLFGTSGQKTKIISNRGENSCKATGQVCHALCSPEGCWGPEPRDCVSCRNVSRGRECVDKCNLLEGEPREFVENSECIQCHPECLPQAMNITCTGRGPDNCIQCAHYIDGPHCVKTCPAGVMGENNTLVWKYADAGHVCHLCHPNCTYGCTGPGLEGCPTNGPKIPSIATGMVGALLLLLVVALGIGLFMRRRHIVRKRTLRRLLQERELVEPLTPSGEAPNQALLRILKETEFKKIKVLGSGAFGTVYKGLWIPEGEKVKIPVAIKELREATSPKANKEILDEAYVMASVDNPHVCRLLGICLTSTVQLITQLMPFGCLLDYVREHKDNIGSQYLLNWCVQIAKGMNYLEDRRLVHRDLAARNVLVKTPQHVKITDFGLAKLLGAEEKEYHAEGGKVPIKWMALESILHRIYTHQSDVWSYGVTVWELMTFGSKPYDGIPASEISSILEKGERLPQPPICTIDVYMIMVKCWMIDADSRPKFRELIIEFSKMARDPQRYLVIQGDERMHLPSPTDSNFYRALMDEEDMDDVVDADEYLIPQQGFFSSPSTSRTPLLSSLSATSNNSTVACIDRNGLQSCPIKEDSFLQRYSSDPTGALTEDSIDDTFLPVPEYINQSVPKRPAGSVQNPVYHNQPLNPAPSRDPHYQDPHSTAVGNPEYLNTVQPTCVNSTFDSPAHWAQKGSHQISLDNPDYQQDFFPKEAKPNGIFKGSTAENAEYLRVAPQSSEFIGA
# KDR, sequence (P35968 20-1356): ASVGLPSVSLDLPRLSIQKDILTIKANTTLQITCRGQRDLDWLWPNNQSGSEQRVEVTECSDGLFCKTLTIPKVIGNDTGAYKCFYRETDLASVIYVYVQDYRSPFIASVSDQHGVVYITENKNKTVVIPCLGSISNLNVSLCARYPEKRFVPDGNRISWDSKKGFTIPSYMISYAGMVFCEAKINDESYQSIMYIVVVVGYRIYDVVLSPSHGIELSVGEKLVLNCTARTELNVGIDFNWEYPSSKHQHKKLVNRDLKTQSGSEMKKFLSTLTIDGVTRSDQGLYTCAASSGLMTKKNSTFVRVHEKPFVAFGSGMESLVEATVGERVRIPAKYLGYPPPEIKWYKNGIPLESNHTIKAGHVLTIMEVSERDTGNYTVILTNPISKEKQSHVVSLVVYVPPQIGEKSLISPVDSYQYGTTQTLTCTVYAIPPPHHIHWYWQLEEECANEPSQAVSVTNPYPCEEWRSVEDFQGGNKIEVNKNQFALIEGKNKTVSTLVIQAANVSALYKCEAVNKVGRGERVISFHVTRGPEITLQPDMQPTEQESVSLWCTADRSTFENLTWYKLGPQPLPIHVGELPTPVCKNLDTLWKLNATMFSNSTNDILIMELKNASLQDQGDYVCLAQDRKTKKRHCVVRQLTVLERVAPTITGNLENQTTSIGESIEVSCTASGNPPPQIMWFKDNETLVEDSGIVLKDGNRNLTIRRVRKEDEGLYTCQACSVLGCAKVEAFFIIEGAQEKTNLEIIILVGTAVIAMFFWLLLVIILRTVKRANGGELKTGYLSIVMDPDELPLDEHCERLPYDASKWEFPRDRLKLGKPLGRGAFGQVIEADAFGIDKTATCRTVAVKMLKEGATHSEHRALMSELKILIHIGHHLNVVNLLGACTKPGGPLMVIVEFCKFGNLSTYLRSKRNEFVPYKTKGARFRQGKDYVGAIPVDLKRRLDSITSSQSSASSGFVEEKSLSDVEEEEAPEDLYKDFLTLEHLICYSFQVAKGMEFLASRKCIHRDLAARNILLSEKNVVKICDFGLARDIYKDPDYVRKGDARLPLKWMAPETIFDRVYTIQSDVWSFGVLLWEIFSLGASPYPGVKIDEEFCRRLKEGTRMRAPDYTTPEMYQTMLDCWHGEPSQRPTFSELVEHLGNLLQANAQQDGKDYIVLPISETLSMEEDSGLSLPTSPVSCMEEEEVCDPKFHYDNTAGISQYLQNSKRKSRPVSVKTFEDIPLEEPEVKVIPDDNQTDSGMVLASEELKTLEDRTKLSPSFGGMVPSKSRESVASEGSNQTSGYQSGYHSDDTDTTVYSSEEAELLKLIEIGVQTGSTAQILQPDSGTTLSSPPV
# Pim-1(h), sequence (P11309 whole entry): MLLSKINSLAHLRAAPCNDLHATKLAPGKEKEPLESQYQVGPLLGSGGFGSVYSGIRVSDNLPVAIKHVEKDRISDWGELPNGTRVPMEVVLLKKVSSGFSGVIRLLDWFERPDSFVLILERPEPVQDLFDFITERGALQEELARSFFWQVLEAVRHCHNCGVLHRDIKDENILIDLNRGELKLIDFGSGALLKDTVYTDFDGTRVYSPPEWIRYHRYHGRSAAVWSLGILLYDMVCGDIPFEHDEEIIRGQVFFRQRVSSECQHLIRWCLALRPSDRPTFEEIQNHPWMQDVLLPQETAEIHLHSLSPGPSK
smiles,measurement,setting,value
CCn1nc(C#Cc2cc(C(=O)Nc3ccc(CN4CCN(C)CC4)c(C(F)(F)F)c3)ccc2C)c2c(N)ncnc21 [Compound 3],remaining activity at 10 µM,[1]; compound at 10 μM,46%
same,remaining activity at 10 µM,[2]; compound at 10 μM,30%
same,IC50,"[2]; EGFR, ATP at Km",3520 nM
same,remaining activity at 10 µM,"[3]; PI3 Kinase a(h), compound at 10 μM",93%
same,remaining activity at 10 µM,[4]; compound at 10 μM,3%
same,remaining activity at 10 µM,[5]; compound at 10 μM,27%
same,IC50,"[6]; MV4-11, 72 h",20 nM
same,IC50,"[7]; EphB4, ATP at Km",23 nM
same,remaining activity at 10 µM,[8]; compound at 10 μM,130%
same,IC50,"[9]; FGFR1, ATP at Km",3 nM
same,IC50,"[10]; A-375, 72 h",20.9 nM
same,remaining activity at 10 µM,[11]; compound at 10 μM,3%
same,remaining activity at 10 µM,[12]; compound at 10 μM,2%
same,IC50,"[12]; IKKα, ATP at Km",353 nM
same,remaining activity at 10 µM,[13]; compound at 10 μM,17%
same,IC50,"[14]; EphA2, ATP at Km",16 nM
same,remaining activity at 10 µM,[15]; compound at 10 μM,101%
same,IC50,"[16]; MIA PaCa-2, 72 h",12.8 nM
same,IC50,"[17]; JAK2, ATP at Km",2910 nM
same,remaining activity at 10 µM,[18]; compound at 10 μM,57%
same,remaining activity at 10 µM,[19]; compound at 10 μM,105%
same,remaining activity at 10 µM,[20]; compound at 10 μM,4%
same,remaining activity at 10 µM,[21]; compound at 10 μM,96%
same,remaining activity at 10 µM,[22]; compound at 10 μM,5%
same,IC50,[23],607 nM
same,IC50,"[24]; c-Src(T341M), ATP at Km",30 nM
same,IC50,[25],9 nM
same,remaining activity at 10 µM,[26]; compound at 10 μM,0%
same,IC50,[26],5 nM
same,IC50,"[27]; Ramos, 72 h",~10000 nM
same,remaining activity at 10 µM,[28]; compound at 10 μM,0%
same,remaining activity at 10 µM,[29]; compound at 10 μM,2%
same,IC50,"[29]; KDR, ATP at Km",17 nM
same,remaining activity at 10 µM,[30]; compound at 10 μM,-5%
same,IC50,"[31]; Blk, ATP at Km",19 nM
Cc1ccc(NC(=O)c2ccc(C)c(C(F)(F)F)c2)cc1C#Cc1nn([C@H]2CC[C@H](O)CC2)c2ncnc(N)c12 [Compound 93],remaining activity at 10 µM,[1]; 10 μM,99%
same,remaining activity at 10 µM,[2]; 10 μM,11%
same,remaining activity at 10 µM,[32],7%
same,remaining activity at 10 µM,"[3]; PI3 Kinase (p110a/p85a)(h), 10 μM",79%
same,remaining activity at 10 µM,[4]; 10 μM,1%
same,remaining activity at 10 µM,[5]; 10 μM,92%
same,IC50,"[6]; MV4-11, MTT, 72 hours",138 nM
same,remaining activity at 10 µM,"[7]; EphB4(h), 10 μM, read-out: The percentage of the remaining active protein",1%
same,remaining activity at 10 µM,[8]; 10 μM,26%
same,remaining activity at 10 µM,"[9]; FGFR1(h), 10 μM, read-out: The percentage of the remaining active protein",1%
same,IC50,"[10]; A-375, A375, MTT, 72 hours",~30 nM
same,remaining activity at 10 µM,[11]; 10 μM,21%
same,remaining activity at 10 µM,[12]; 10 μM,7%
same,remaining activity at 10 µM,[13]; 10 μM,60%
same,remaining activity at 10 µM,[14]; read-out: The percentage of the remaining active protein,-3%
same,remaining activity at 10 µM,[15]; 10 μM,110%
same,IC50,"[16]; MIA PaCa-2, Miapaca-2, MTT, 72 hours",< 600 nM
same,remaining activity at 10 µM,[33],1%
same,remaining activity at 10 µM,"[17]; JAK2(h), 10 μM, read-out: The percentage of the remaining active protein",64%
same,remaining activity at 10 µM,[18]; 10 μM,87%
same,remaining activity at 10 µM,[19]; 10 μM,108%
same,remaining activity at 10 µM,[20]; 10 μM,24%
same,remaining activity at 10 µM,[21]; 10 μM,101%
same,remaining activity at 10 µM,[22]; 10 μM,102%
same,remaining activity at 10 µM,"[24]; Src(T341M)(h), 10 μM, read-out: The percentage of the remaining active protein",20%
same,remaining activity at 10 µM,"[25]; DDR1(h), 10 μM, read-out: The percentage of the remaining active protein",-2%
same,IC50,[25],15 nM
same,remaining activity at 10 µM,[26]; 10 μM,0%
same,IC50,[26],6 nM
same,IC50,"[27]; RAMOS, MTT, 72 hours",~10000 nM
same,remaining activity at 10 µM,[28]; 10 μM,4%
same,remaining activity at 10 µM,[29]; 10 μM,2%
same,remaining activity at 10 µM,[30]; 10 μM,2%
same,remaining activity at 10 µM,"[31]; Blk(h), 10 μM, read-out: The percentage of the remaining active protein",0%
